The results in this text go back to ChEMBL document CHEMBL1201862, “PubChem BioAssay data set” (2004).

Test in all cases: NCI anticancer screen, dose series, 48 h
Experiment [1] deals with HOP-92.
The test system of experiment [2] is U-251.
Experiment [3] relates to OVCAR-8.
The subject of experiment [4] is SNB-19.
For experiment [5], the system named is ACHN.
For experiment [6], the system named is Malme-3M.
Experiment [7] has as its system MOLT-4.
Experiment [8] relates to NCI-H460.
In experiment [9] the test system is HCT-15.
Experiment [10] deals with EKVX.
Experiment [11] concerns RPMI-8226.
In experiment [12] the test system is IGROV-1.
In experiment [13] the test system is SK-MEL-5.
Experiment [14] relates to HT-29.
In experiment [15] the test system is CCRF-CEM.
Experiment [16] has as its system SF-295.
The subject of experiment [17] is SN12C.
Experiment [18] has as its system KM12.
Experiment [19] relates to OVCAR-4.
In experiment [20] the test system is HCC 2998.

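Five compound concentrations were applied to cells in 96-well plates for 48 hours; endpoints were derived by simple linear interpolation of the resulting dose-response curve. Here, GI50 denotes the concentration required for 50% inhibition of growth.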 Activity calls are given as the source filed them. No stated cut-off is given here; in the data, active = GI50 up to about 1.1 µM and inactive = higher.

As for `NC(=S)N/N=C1\CC(c2ccccc2)Nc2ccccc21` (configuration not stated), the GI50 in experiment [1] was 16.4 µM (inactive); in experiment [2], 39.6 µM (inactive); in experiment [3], 41.6 µM (inactive); in [4] it was 40.8 µM (inactive); in experiment [5], 46.3 µM (inactive); in experiment [6] it was 27.6 µM (inactive). In addition, the GI50 was 22.6 µM (inactive) in experiment [7]; 32.7 µM (inactive) in [8]; 28.6 µM in experiment [9]; 55.7 µM (inactive) in [10]; 27.1 µM (inactive) in experiment [11]; 42.7 µM (inactive) in experiment [12]. In addition, the GI50 in experiment [13] was 19.5 µM (inactive); in experiment [14], 17.2 µM (inactive); in [15], 29.6 µM (inactive); in experiment [16], 60.3 µM (inactive); in [17], 48.1 µM (inactive).

As for `Cc1cc(O)c(C(c2cccnc2)c2c(O)cc(C)[nH]c2=O)c(=O)[nH]1`, the GI50 in experiment [2], in experiment [3], in experiment [4], in experiment [5], in [18] and in [6] was > 100 µM (inactive) each time. In addition, the GI50 in experiment [7] is > 100 µM (inactive); in [8], > 100 µM (inactive); in experiment [9] it was over 100 µM; in experiment [10], > 100 µM (inactive); in experiment [19], > 100 µM (inactive); in experiment [11] it was > 100 µM (inactive). Besides, the GI50 in experiment [12], in experiment [13], in [14], in experiment [15], in experiment [16] and in [17] was > 100 µM (inactive) each time.

Regarding `C=C1CC(OC)(C(O)C(=O)N[C@H]2OCO[C@H]3C2O[C@H](C[C@@H](COC)OC)C(C)(C)C3OC)O[C@H](C)[C@@H]1C` (some centres not stated), the GI50 in experiment [20], in [2], in [3], in [4], in experiment [18] and in experiment [7] was < 0.00482 µM (active) each time. Moreover, the GI50 in experiment [8] is < 0.00482 µM (active); in [9], under 0.00482 µM; in experiment [10], < 0.00482 µM (active); in [19] it was < 0.00482 µM (active); in experiment [11], < 0.00482 µM (active); in experiment [12] it was < 0.00482 µM (active). Also, the GI50 in experiment [13], in experiment [14], in experiment [15], in experiment [16] and in experiment [17] was < 0.00482 µM (active) throughout.

Regarding `C=CCN1C(=O)/C(=C/c2ccc(OC)cc2)NC1=S`, the GI50 in experiment [20] was > 100 µM (inactive); in [1] it was 14.5 µM (inactive); in [2], 82.2 µM (inactive); in [3], 25.7 µM (inactive); in experiment [4], > 100 µM (inactive); in experiment [5], > 100 µM (inactive). Also, the GI50 in experiment [18] is 97.7 µM (inactive); in experiment [7] it was 4.59 µM (inactive); in experiment [8], > 100 µM (inactive); in experiment [9], over 100 µM; in [10] it was 18.3 µM (inactive); in experiment [19] it was 54.5 µM (inactive). For the same compound, the GI50 in experiment [11] was 35.2 µM (inactive); in [12] it was > 100 µM (inactive); in experiment [13], 30.5 µM (inactive); in experiment [14], 57.9 µM (inactive); in [15], < 0.01 µM (active); in experiment [16], 54.2 µM (inactive). The GI50 in experiment [17] is > 100 µM (inactive).

With `CC(C)CC(NC(=O)OCc1ccccc1)C(=O)NCCCCC(N)C(=O)NC(CCCCNC(=O)C(CC(C)C)NC(=O)OCc1ccccc1)C(=O)NC(CCCCNC(=O)C(CC(C)C)NC(=O)OCc1ccccc1)C(=O)NC(CCCCNC(=O)C(CC(C)C)NC(=O)OCc1ccccc1)C(=O)NC(CCCCNC(=O)C(CC(C)C)NC(=O)OCc1ccccc1)C(=O)NC(CCCCNC(=O)C(CC(C)C)NC(=O)OCc1ccccc1)C(=O)O` (configuration not stated), the GI50 in [20], in experiment [2], in experiment [3], in experiment [4], in experiment [5] and in experiment [6] was > 100 µM (inactive) throughout. The GI50 in experiment [7] was > 100 µM (inactive); in experiment [8], > 100 µM (inactive); in experiment [9] it was over 100 µM; in [19] it was > 100 µM (inactive); in experiment [11] it was > 100 µM (inactive); in experiment [12] it was > 100 µM (inactive). Also, the GI50 in experiment [13], in [14], in experiment [15] and in [17] was > 100 µM (inactive) each time.

Consider `O=C1/C(=C/c2ccccc2)NC(=S)N1CN1CCOCC1`, for which the GI50 in experiment [1], in [2], in [3], in experiment [4], in experiment [5] and in [18] was > 100 µM (inactive) each time. Besides, the GI50 in [6] is > 100 µM (inactive); in [7], > 100 µM (inactive); in experiment [9], over 100 µM; in [10] it was > 100 µM (inactive); in experiment [19], 72.8 µM (inactive); in [11] it was > 100 µM (inactive). The GI50 in [12], in [13], in experiment [14], in [15], in experiment [16] and in experiment [17] was > 100 µM (inactive) each time.

On to `Cc1cccc(/C=C2\CCCc3ccccc3C2=O)c1`, for which the GI50 is 15 µM (inactive) in experiment [1]; 18.6 µM (inactive) in experiment [2]; 19.1 µM (inactive) in experiment [3]; 24.4 µM (inactive) in experiment [4]; 26.5 µM (inactive) in experiment [5]; 13.4 µM (inactive) in [18]. The GI50 is 18.1 µM (inactive) in [6]; 16.9 µM (inactive) in experiment [7]; 16.8 µM (inactive) in experiment [8]; 18.7 µM in experiment [9]; 20.6 µM (inactive) in [10]; 19.1 µM (inactive) in [19]. Further, the GI50 was 8.2 µM (inactive) in experiment [11]; 21.6 µM (inactive) in experiment [12]; 18.5 µM (inactive) in experiment [14]; 13.7 µM (inactive) in experiment [15]; 19.5 µM (inactive) in experiment [16]; 17.9 µM (inactive) in experiment [17].

Regarding `COC(=O)C(=O)C(C(C)=O)C(=O)C(=O)Nc1ccc(C)cc1C` (configuration not stated), the GI50 in experiment [20], in experiment [1], in experiment [2], in [3], in [4] and in experiment [5] was > 100 µM (inactive) throughout. Moreover, the GI50 is > 100 µM (inactive) in [18]; > 100 µM (inactive) in experiment [7]; > 100 µM (inactive) in [8]; over 100 µM in experiment [9]; > 100 µM (inactive) in [10]; > 100 µM (inactive) in experiment [19]. The GI50 in [11], in [12], in experiment [13], in experiment [14], in experiment [15] and in [16] was > 100 µM (inactive) each time. Besides, the GI50 in [17] was > 100 µM (inactive).

Turning to `COc1ccc(C2=NN(c3nsc4ccccc34)C(=O)CC2)cc1`, the GI50 in experiment [20] is > 100 µM (inactive); in experiment [1], 92 µM (inactive); in experiment [2] it was 91.4 µM (inactive); in [3] it was > 100 µM (inactive); in [4], 76 µM (inactive); in experiment [5], > 100 µM (inactive). The GI50 was > 100 µM (inactive) in experiment [18]; 44 µM (inactive) in experiment [7]; 62.7 µM (inactive) in experiment [8]; 57.9 µM in experiment [9]; 55.2 µM (inactive) in [10]; > 100 µM (inactive) in experiment [19]. Moreover, the GI50 in experiment [11] is 30.5 µM (inactive); in [12] it was 70.1 µM (inactive); in experiment [13] it was 61.4 µM (inactive); in experiment [14] it was > 100 µM (inactive); in experiment [15], 82.6 µM (inactive); in [17], > 100 µM (inactive).

Take `Cc1nc2cccc(F)c2c(=O)n1C1CCCCNC1=O` (configuration not stated): the GI50 in experiment [20], in experiment [1], in [2], in experiment [3], in [4] and in experiment [5] was > 10 µM (inactive) each time. Also, the GI50 in [18] was > 10 µM (inactive); in [7] it was > 10 µM (inactive); in experiment [8] it was > 10 µM (inactive); in [9] it was over 10 µM; in experiment [10] it was > 10 µM (inactive); in [19], > 10 µM (inactive). The GI50 in experiment [11], in experiment [12], in experiment [13], in experiment [14], in experiment [15] and in experiment [16] was > 10 µM (inactive) each time. Besides, the GI50 in experiment [17] was > 10 µM (inactive).

For `c1cc(CN2CCNCCNCCNCC2)cc(CN2CCNCCNCCNCC2)c1`, the GI50 in [20], in experiment [2], in experiment [3], in [4], in experiment [5] and in experiment [18] was > 100 µM (inactive) throughout. The GI50 in experiment [6] is > 100 µM (inactive); in experiment [7] it was > 100 µM (inactive); in experiment [8], > 100 µM (inactive); in [9] it was over 10 µM; in [10] it was > 100 µM (inactive); in experiment [19], > 100 µM (inactive). Moreover, the GI50 in experiment [11], in experiment [12], in experiment [13], in experiment [14], in experiment [16] and in experiment [17] was > 100 µM (inactive) each time.
